Measured values reported in ChEMBL document CHEMBL1130231, “Betidamino acid scan of the GnRH antagonist acyline” (J Med Chem, 1997).
The source made the active and inactive calls. The rule behind the calls is not given here.

Key:
Format in all cases: functional, organism-based
[1] = tested on: Rattus norvegicus; assay: Ratio of ovulated rats to total number of rats determined in a anti-ovulatory assay by administering 10 microg of compound; 2/6
[2] = tested on: Rattus norvegicus; assay: Ratio of ovulated rats to total number of rats determined in a anti-ovulatory assay by administering 25 microg of compound; 0/3
[3] = tested on: Rattus norvegicus; assay: Ratio of ovulated rats to total number of rats determined in a anti-ovulatory assay by administering 5 microg of compound; 4/8
[4] = tested on: Rattus norvegicus; assay: Ratio of ovulated rats to total number of rats determined in a anti-ovulatory assay by administering 2.5 microg of compound; 5/8
[5] = tested on: Rattus norvegicus; assay: Ratio of ovulated rats to total number of rats determined in a anti-ovulatory assay by administering 50 microg of compound; 3/8
[6] = tested on: Rattus norvegicus; assay: Ratio of ovulated rats to total number of rats determined in a anti-ovulatory assay by administering 100 microg of compound; 0/8
[7] = tested on: Rattus norvegicus; assay: Ratio of ovulated rats to total number of rats determined in a anti-ovulatory assay by administering 250 microg of compound; 3/3
[8] = tested on: Rattus norvegicus; assay: Ratio of ovulated rats to total number of rats determined in a anti-ovulatory assay by administering 2.5 microg of compound; 1/7
[9] = tested on: Rattus norvegicus; assay: Ratio of ovulated rats to total number of rats determined in a anti-ovulatory assay by administering 5 microg of compound; 0/4
[10] = tested on: Rattus norvegicus; assay: Ratio of ovulated rats to total number of rats determined in a anti-ovulatory assay by administering 1.0 microg of compound; 3/4
[11] = tested on: Rattus norvegicus; assay: Ratio of ovulated rats to total number of rats determined in a anti-ovulatory assay by administering 10 microg of compound; 3/7
[12] = tested on: Rattus norvegicus; assay: Ratio of ovulated rats to total number of rats determined in a anti-ovulatory assay by administering 10 microg of compound; 4/8
[13] = tested on: Rattus norvegicus; assay: Ratio of ovulated rats to total number of rats determined in a anti-ovulatory assay by administering 2.5 microg of compound; 7/8
[14] = tested on: Rattus norvegicus; assay: Ratio of ovulated rats to total number of rats determined in a anti-ovulatory assay by administering 10 microg of compound; 8/8
[15] = tested on: Rattus norvegicus; assay: Ratio of ovulated rats to total number of rats determined in a anti-ovulatory assay by administering 25 microg of compound; 6/8
[16] = tested on: Rattus norvegicus; assay: Ratio of ovulated rats to total number of rats determined in a anti-ovulatory assay by administering 1 ug of compound; 3/3
[17] = tested on: Rattus norvegicus; assay: Ratio of ovulated rats to total number of rats determined in a anti-ovulatory assay by administering 2.5 microg of compound; 0/7
[18] = tested on: Rattus norvegicus; assay: Ratio of ovulated rats to total number of rats determined in a anti-ovulatory assay by administering 2.5 microg of compound; 0/8
[19] = tested on: Rattus norvegicus; assay: Ratio of ovulated rats to total number of rats determined in a anti-ovulatory assay by administering 0.5 microg of compound; 5/8
[20] = tested on: Rattus norvegicus; assay: Ratio of ovulated rats to total number of rats determined in a anti-ovulatory assay by administering 1 microg of compound; 0/8
[21] = tested on: Rattus norvegicus; assay: Ratio of ovulated rats to total number of rats determined in a anti-ovulatory assay by administering 2.5 microg of compound; 0/5
[22] = tested on: Rattus norvegicus; assay: Ratio of ovulated rats to total number of rats determined in a anti-ovulatory assay by administering 1 microg of compound; 6/14
[23] = tested on: Rattus norvegicus; assay: Ratio of ovulated rats to total number of rats determined in a anti-ovulatory assay by administering 250 microg of compound; 2/2
[24] = tested on: Rattus norvegicus; assay: Ratio of ovulated rats to total number of rats determined in a anti-ovulatory assay by administering 5 microg of compound; 0/8
[25] = tested on: Rattus norvegicus; assay: Ratio of ovulated rats to total number of rats determined in a anti-ovulatory assay by administering 1 ug of compound; 6/8
[26] = tested on: Rattus norvegicus; assay: Ratio of ovulated rats to total number of rats determined in a anti-ovulatory assay by administering 1 microg of compound; 2/7
[27] = tested on: Rattus norvegicus; assay: Ratio of ovulated rats to total number of rats determined in a anti-ovulatory assay by administering 0.5 microg of compound; 6/7
[28] = tested on: Rattus norvegicus; assay: Ratio of ovulated rats to total number of rats determined in a anti-ovulatory assay by administering 1 microg of compound; 5/13
[29] = tested on: Rattus norvegicus; assay: Ratio of ovulated rats to total number of rats determined in a anti-ovulatory assay by administering 250 microg of compound; 8/9

SMILES: CC(=O)Nc1ccc(C[C@H](NC(=O)[C@H](CO)NC(=O)[C@@H](Cc2cccnc2)NC(=O)[C@@H](Cc2ccc(Cl)cc2)NC(=O)[C@H](Cc2ccc3ccccc3c2)NC(C)=O)C(=O)N[C@H](Cc2ccc(NC(C)=O)cc2)C(=O)N[C@@H](CC(C)C)C(=O)N[C@@H](CCCCNC(C)C)C(=O)N2CCC[C@@H]2C(=O)N[C@H](C)C(N)=O)cc1
- ov. rat/total [1]: Partially active
- ov. rat/total [2]: Active

SMILES: CC(=O)Nc1ccc(C[C@H](NC(=O)[C@H](NC(=O)CO)NC(=O)[C@@H](Cc2cccnc2)NC(=O)[C@@H](Cc2ccc(Cl)cc2)NC(=O)[C@@H](Cc2ccc3ccccc3c2)NC(C)=O)C(=O)N[C@H](Cc2ccc(NC(C)=O)cc2)C(=O)N[C@@H](CC(C)C)C(=O)N[C@@H](CCCCNC(C)C)C(=O)N2CCC[C@@H]2C(=O)N[C@H](C)C(N)=O)cc1 (single isomer, unassigned)
- ov. rat/total [3]: Partially active

SMILES: CC(=O)Nc1ccc(C[C@H](NC(=O)[C@@H](NC(=O)[C@@H](Cc2cccnc2)NC(=O)[C@@H](Cc2ccc(Cl)cc2)NC(=O)[C@@H](Cc2ccc3ccccc3c2)NC(C)=O)N(C)C=O)C(=O)N[C@H](Cc2ccc(NC(C)=O)cc2)C(=O)N[C@@H](CC(C)C)C(=O)N[C@@H](CCCCNC(C)C)C(=O)N2CCC[C@@H]2C(=O)N[C@H](C)C(N)=O)cc1 (single isomer, unassigned)
- ov. rat/total [4]: Partially active

SMILES: CC(=O)Nc1ccc(C[C@H](NC(=O)[C@H](CO)NC(=O)[C@@H](Cc2cccnc2)NC(=O)[C@H](NC(=O)[C@@H](Cc2ccc3ccccc3c2)NC(C)=O)N(C)C(=O)c2ccc(Cl)cc2)C(=O)N[C@H](Cc2ccc(NC(C)=O)cc2)C(=O)N[C@@H](CC(C)C)C(=O)N[C@@H](CCCCNC(C)C)C(=O)N2CCC[C@@H]2C(=O)N[C@H](C)C(N)=O)cc1
- ov. rat/total [5]: Partially active
- ov. rat/total [6]: Active

SMILES: CC(=O)Nc1ccc(C[C@H](NC(=O)[C@H](CO)NC(=O)[C@@H](Cc2cccnc2)NC(=O)[C@H](NC(=O)c2cnccn2)NC(=O)[C@@H](Cc2ccc3ccccc3c2)NC(C)=O)C(=O)N[C@H](Cc2ccc(NC(C)=O)cc2)C(=O)N[C@@H](CC(C)C)C(=O)N[C@@H](CCCCNC(C)C)C(=O)N2CCC[C@@H]2C(=O)N[C@H](C)C(N)=O)cc1 (single isomer, unassigned)
- ov. rat/total [7]: inactive

SMILES: CC(=O)Nc1ccc(C[C@H](NC(=O)[C@H](CO)NC(=O)[C@@H](Cc2cccnc2)NC(=O)[C@@H](Cc2ccc(Cl)cc2)NC(=O)[C@@H](Cc2ccc3ccccc3c2)NC(C)=O)C(=O)N[C@H](Cc2ccc(NC(C)=O)cc2)C(=O)N[C@@H](CC(C)C)C(=O)NC(NC(=O)CN=C(N)N)C(=O)N2CCC[C@@H]2C(=O)N[C@H](C)C(N)=O)cc1 (stereo partly specified)
- ov. rat/total [8]: Active
- ov. rat/total [9]: Active
- ov. rat/total [10]: inactive

SMILES: CC(=O)Nc1ccc(C[C@H](NC(=O)[C@H](CO)NC(=O)[C@H](NC(=O)c2ccncc2)NC(=O)[C@@H](Cc2ccc(Cl)cc2)NC(=O)[C@@H](Cc2ccc3ccccc3c2)NC(C)=O)C(=O)N[C@H](Cc2ccc(NC(C)=O)cc2)C(=O)N[C@@H](CC(C)C)C(=O)N[C@@H](CCCCNC(C)C)C(=O)N2CCC[C@@H]2C(=O)N[C@H](C)C(N)=O)cc1 (single isomer, unassigned)
- ov. rat/total [11]: Partially active

SMILES: CC(=O)Nc1ccc(C[C@H](NC(=O)[C@H](CO)NC(=O)[C@@H](Cc2cccnc2)NC(=O)[C@@H](Cc2ccc(Cl)cc2)NC(=O)[C@@H](Cc2ccc3ccccc3c2)NC(C)=O)C(=O)N[C@H](Cc2ccc(NC(C)=O)cc2)C(=O)N[C@@H](CC(C)C)C(=O)N[C@@H](C(=O)N2CCC[C@@H]2C(=O)N[C@H](C)C(N)=O)N(C)C(=O)CCNC(C)C)cc1 (single isomer, unassigned)
- ov. rat/total [12]: Partially active
- ov. rat/total [13]: inactive

SMILES: CC(=O)Nc1ccc(C[C@H](NC(=O)[C@H](CO)NC(=O)[C@@H](NC(=O)[C@@H](Cc2ccc(Cl)cc2)NC(=O)[C@@H](Cc2ccc3ccccc3c2)NC(C)=O)N(C)C(=O)c2cccnc2)C(=O)N[C@H](Cc2ccc(NC(C)=O)cc2)C(=O)N[C@@H](CC(C)C)C(=O)N[C@@H](CCCCNC(C)C)C(=O)N2CCC[C@@H]2C(=O)N[C@H](C)C(N)=O)cc1 (single isomer, unassigned)
- ov. rat/total [14]: inactive
- ov. rat/total [15]: inactive

SMILES: CC(=O)Nc1ccc(C[C@H](NC(=O)[C@H](CO)NC(=O)[C@H](NC(=O)c2cccnc2)NC(=O)[C@@H](Cc2ccc(Cl)cc2)NC(=O)[C@@H](Cc2ccc3ccccc3c2)NC(C)=O)C(=O)N[C@H](Cc2ccc(NC(C)=O)cc2)C(=O)N[C@@H](CC(C)C)C(=O)N[C@@H](CCCCNC(C)C)C(=O)N2CCC[C@@H]2C(=O)N[C@H](C)C(N)=O)cc1
- ov. rat/total [16]: inactive
- ov. rat/total [17]: Active

SMILES: CC(=O)Nc1ccc(C[C@H](NC(=O)[C@H](CO)NC(=O)[C@@H](Cc2cccnc2)NC(=O)[C@@H](Cc2ccc(Cl)cc2)NC(=O)[C@@H](Cc2ccc3ccccc3c2)NC(C)=O)C(=O)N[C@H](Cc2ccc(NC(C)=O)cc2)C(=O)N[C@@H](CC(C)C)C(=O)N[C@H](C(=O)N2CCC[C@@H]2C(=O)N[C@H](C)C(N)=O)N(C)C(=O)CCNC(C)C)cc1 (single isomer, unassigned)
- ov. rat/total [18]: Active
- ov. rat/total [19]: Partially active
- ov. rat/total [20]: Active

SMILES: CC(=O)Nc1ccc(C[C@H](NC(=O)[C@H](CO)NC(=O)[C@@H](NC(=O)c2cccnc2)NC(=O)[C@@H](Cc2ccc(Cl)cc2)NC(=O)[C@@H](Cc2ccc3ccccc3c2)NC(C)=O)C(=O)N[C@H](Cc2ccc(NC(C)=O)cc2)C(=O)N[C@@H](CC(C)C)C(=O)N[C@@H](CCCCNC(C)C)C(=O)N2CCC[C@@H]2C(=O)N[C@H](C)C(N)=O)cc1
- ov. rat/total [21]: Active
- ov. rat/total [22]: Partially active

SMILES: CC(=O)Nc1ccc(C[C@H](NC(=O)[C@H](CO)NC(=O)[C@@H](Cc2cccnc2)NC(=O)[C@@H](NC(=O)c2cnccn2)NC(=O)[C@@H](Cc2ccc3ccccc3c2)NC(C)=O)C(=O)N[C@H](Cc2ccc(NC(C)=O)cc2)C(=O)N[C@@H](CC(C)C)C(=O)N[C@@H](CCCCNC(C)C)C(=O)N2CCC[C@@H]2C(=O)N[C@H](C)C(N)=O)cc1
- ov. rat/total [23]: inactive

SMILES: CC(=O)Nc1ccc(C[C@H](NC(=O)[C@H](NC=O)NC(=O)[C@@H](Cc2cccnc2)NC(=O)[C@@H](Cc2ccc(Cl)cc2)NC(=O)[C@@H](Cc2ccc3ccccc3c2)NC(C)=O)C(=O)N[C@H](Cc2ccc(NC(C)=O)cc2)C(=O)N[C@@H](CC(C)C)C(=O)N[C@@H](CCCCNC(C)C)C(=O)N2CCC[C@@H]2C(=O)N[C@H](C)C(N)=O)cc1
- ov. rat/total [24]: Active
- ov. rat/total [25]: inactive

SMILES: CC(=O)Nc1ccc(C[C@H](NC(=O)[C@H](CO)NC(=O)[C@@H](Cc2cccnc2)NC(=O)[C@@H](Cc2ccc(Cl)cc2)NC(=O)[C@@H](NC(C)=O)NC(=O)c2ccc3ccccc3c2)C(=O)N[C@H](Cc2ccc(NC(C)=O)cc2)C(=O)N[C@@H](CC(C)C)C(=O)N[C@@H](CCCCNC(C)C)C(=O)N2CCC[C@@H]2C(=O)N[C@H](C)C(N)=O)cc1
- ov. rat/total [18]: Active
- ov. rat/total [26]: Partially active

SMILES: CC(=O)Nc1ccc(C[C@H](NC(=O)[C@H](CO)NC(=O)[C@@H](Cc2cccnc2)NC(=O)[C@@H](Cc2ccc(Cl)cc2)NC(=O)[C@@H](Cc2ccc3ccccc3c2)NC(C)=O)C(=O)N[C@H](Cc2ccc(NC(C)=O)cc2)C(=O)N[C@@H](CC(C)C)C(=O)N[C@@H](CCCCNC(C)C)C(=O)N2CCC[C@@H]2C(=O)N[C@H](C)C(N)=O)cc1
- ov. rat/total [17]: Active
- ov. rat/total [27]: inactive
- ov. rat/total [28]: Partially active

SMILES: CC(=O)Nc1ccc(C[C@H](NC(=O)[C@H](CO)NC(=O)[C@@H](Cc2cccnc2)NC(=O)[C@@H](NC(=O)c2c[nH]nc2N)NC(=O)[C@@H](Cc2ccc3ccccc3c2)NC(C)=O)C(=O)N[C@H](Cc2ccc(NC(C)=O)cc2)C(=O)N[C@@H](CC(C)C)C(=O)N[C@@H](CCCCNC(C)C)C(=O)N2CCC[C@@H]2C(=O)N[C@H](C)C(N)=O)cc1 (single isomer, unassigned)
- ov. rat/total [29]: inactive
